Results on one molecule are retold here after patent publication US11253479B2, “Hydrobromide salt of an anti-HIV compound” (Janssen Sciences Ireland UC, priority 2006, dated 2022).

Data set [1] can be described thus: Stability of salts of compound (A) (decomposition to compound (A) and free acid). The data set is classed as physicochemical. Conditions: partial or complete decomposition to compound (A) and the free acid. The source says: Contrary to a number of other salts of compound (A) that are unstable, the compound of formula (I) is a stable salt.
The nature of data set [2]: In-vivo study of bioavailability in dogs of capsules filled with salts. On the procedure:
Four male dogs were used per tested formulation. The animals were randomized over the test groups by a computer-generated random algorithm according to body weight, with all animals within ±20% of the sex mean. A health inspection was performed prior to commencement of treatment to ensure that the animals were in a good state of health. The dogs were subjected to an acclimatization period of at least 5 days before the start of treatment under laboratory conditions. A controlled environment was maintained in the room. The animals were dosed once orally with the formulations of example 1, and blood was collected from all animals under light ether anaesthesia at regular intervals for a period of 12, 24 or 48 hours after dosing.
The mean pharmacokinetic parameters relating to the mean plasma concentration with time of each test formulation are shown in Table 3. The standard deviation, where calculated, is shown between brackets.

[3] abbreviates: male dogs, dosed once orally, capsules, dose normalized to 1 mg/kg, mean.

With `Br.Cc1cc(C#N)cc(C)c1Oc1nc(Nc2ccc(C#N)cc2)nc(N)c1Br` [HBr salt, 4-[[4-amino-5-bromo-6-(4-cyano-2,6-dimethylphenyloxy)-2-pyrimidinyl]amino]benzonitrile hydrobromide], the “stability of the salt” value in data set [1] was “stable”. The Tmax in data set [2] (dog, plasma, po, 118.6 mg salt per capsule, male dogs, dosed once orally, capsules of example 1, mean) came out at 4.5 h. Further, the Cmax in data set [2] (dog, plasma, po, 118.6 mg salt per capsule, male dogs, dosed once orally, capsules, without dose normalization, mean) stood at 366 ng/mL. Also, the AUC(0-t) in data set [2] (dog, plasma, po, 118.6 mg salt per capsule, male dogs, dosed once orally, capsules, without dose normalization, mean, read-out: AUC0-last (without dose normalization)) was found to be 5860 ng·h/mL. Besides, the “bioavailability in dogs compared with other salts (Cmax, AUC0-last)” value in data set [2] (dogs, oral capsules) is on record as “improved bioavailability”. Besides, the tlast in data set [2] (male dogs, dosed once orally, capsules of example 1, mean) came to 48 h. In data set [2] (setting [3]), the “AUC0-last (dose normalized to 1 mg/kg)” value was determined as 516.1 ng·h/mL and the “Cmax (dose normalized to 1 mg/kg)” value worked out at 31.73 ng/mL.
